Experiments:
Aqueous solubility = assay type: physicochemical
From the text: Table 5 presents the results.

[1] = Solvent properties (density, boiling point, flash point, freezing point, viscosity); assay type: physicochemical
From the text: Isopropyl 2-hydroxy-4-(methylsulfinyl)butanoate (also called iC3SO) has the following properties.
Green or regular hard surface cleaner or degreaser formulations containing commercial surfactants or a mixture (i.e., monomers, dimers, and short oligomers) of octyl 2-hydroxy-4-(methylsulfinyl)butanoate (also called “C8SO”) were formulated, as shown in Table 2 below. The density of C8SO is 1.08 g/mL.

[2] = in water at 25° C. and atmospheric pressure

| SMILES | Solubility (wt/wt total) (Aqueous solubility; [2]) | Solubility (wt/wt total) (Aqueous solubility; in water, marked *Theoretical) | other results |
| --- | --- | --- | --- |
| CSCCC(O)C(=O)OC(C)C (centres unmarked) [Isopropyl 2-hydroxy-4-(methylthio)butanoate] | 2.5 wt % |  |  |
| CCCCOC(=O)C(O)CCSC (centres unmarked) [Butyl 2-hydroxy-4-(methylthio)butanoate, Butyl 2-Hydroxy-4-(Methylthio)Butanoate] | 0.9 wt % |  |  |
| COC(=O)C(O)CC[S+](C)[O-] (centres unmarked) [Methyl 2-Hydroxy-4-(Methylsulfinyl)Butanoate] |  | >50% wt % |  |
| CCCCCCOC(=O)C(O)CC[S+](C)[O-] (centres unmarked) [Hexyl 2-Hydroxy-4-(Methylsulfinyl)Butanoate] | >50.0 wt % |  |  |
| CCCCCCCCNC(=O)C(O)CC[S+](C)[O-] (centres unmarked) [2-Hydroxy-4-(Methylsulfinyl)-N-Octylbutanamide] | >50.0 wt % |  |  |
| CCCCOC(=O)C(O)CC[S+](C)[O-] (centres unmarked) [Butyl 2-Hydroxy-4-(Methylsulfinyl)Butanoate] |  | >50% wt % |  |
| CCCCCCCCCCOC(=O)C(O)CCS(C)(=O)=O (centres unmarked) [Decyl 2-Hydroxy-4-(Methylsulfonyl)Butanoate] | <0.1 wt % |  |  |
| CCCCCCCCOC(=O)C(O)CC[S+](C)[O-] (centres unmarked) [Octyl 2-Hydroxy-4-(Methylsulfinyl)Butanoate] | >50.0 wt % |  |  |
| CC(C)OC(=O)C(O)CC[S+](C)[O-] (centres unmarked) [iC3SO, Isopropyl 2-hydroxy-4-(methylsulfinyl)butanoate] |  | >50% wt % | Boiling Point [1]: 248° ° C.; Density [1]: 1.17 g/mL; Flash Point [1]: 194° ° C.; Freezing Point [1]: <−90° ° C.; Viscosity [1]: 519 cps |
